Test results from patent publication US11952368B2, “FAPI dimer compound, FAPI dimer-based positron emission tomography (PET) imaging agent for tumor diagnosis, and preparation method and use thereof” (XIAMEN UNIVERSITY, priority 2021, dated 2024).

Legend:
[1] = system: lesions in the three cancer patients; experiment: PET/CT in tumor patients (NPC, thyroid cancer, HCC), SUVmax of lesions; type: in vivo, human
Method: This experiment was approved by the Clinical Research Ethics Committee of the First Affiliated Hospital of Xiamen University, and all subjects signed a written informed consent form. Doses of ^68Ga-FAPI-46 and ^68Ga-2PEG(3)-FAPI-dimer for intravenous injection (1.8 MBq to 2.2 MBq [0.05 mCi to 0.06 mCi]/kg) were calculated according to a body weight of a patient. A cancer patient was administered with ^68Ga-2PEG(3)-FAPI-dimer and ^68Ga-FAPI-46 at an interval of 3 d. Data were acquired using a hybrid PET/CT scanner (Discovery MI, GE Healthcare, Milwaukee, WI, USA). A PET/CT image was acquired at 60 min after intravenous injection (a thyroid cancer patient was scanned twice at 60 min and 240 min after injection). A maximum standard uptake value (SUVmax) was automatically calculated with ROIs drawn on a transaxial image. PET/CT scanning was conducted at 60 min after the three patients were intravenously administered with ^68Ga-FAPI-46 and ^68Ga-2PEG(3)-FAPI-dimer, including a nasopharyngeal carcinoma (NPC) patient (non-keratinizing undifferentiated carcinoma, immunotherapy was conducted when the widespread bone metastasis occurred after chemoradiotherapy), a thyroid cancer patient (multiple cycles of radioactive iodine therapy were conducted after papillary thyroid carcinoma (PTC), total thyroidectomy, and lymph node dissection), and an HCC patient (untreated at preliminary diagnosis). The comparison of ^68Ga-FAPI-46 and ^68Ga-2PEG(3)-FAPI-dimer uptake among lesions in the three cancer patients was shown in Table 3.

FAP on CAFs = biological target: T1, FAP on CAFs (Homo sapiens, UniProt Q12884); experiment: FAP binding assay (radioligand competition) on CAFs; conditions: radiolabeled compound co-incubated 60 min with corresponding unlabeled FAPI derivative
T1 construct: FAP-expressing CAFs were inoculated in a 24-well plate; endogenous in cells; host or cells: cancer-associated fibroblasts (CAFs)
T1 sequence (Q12884 1-760): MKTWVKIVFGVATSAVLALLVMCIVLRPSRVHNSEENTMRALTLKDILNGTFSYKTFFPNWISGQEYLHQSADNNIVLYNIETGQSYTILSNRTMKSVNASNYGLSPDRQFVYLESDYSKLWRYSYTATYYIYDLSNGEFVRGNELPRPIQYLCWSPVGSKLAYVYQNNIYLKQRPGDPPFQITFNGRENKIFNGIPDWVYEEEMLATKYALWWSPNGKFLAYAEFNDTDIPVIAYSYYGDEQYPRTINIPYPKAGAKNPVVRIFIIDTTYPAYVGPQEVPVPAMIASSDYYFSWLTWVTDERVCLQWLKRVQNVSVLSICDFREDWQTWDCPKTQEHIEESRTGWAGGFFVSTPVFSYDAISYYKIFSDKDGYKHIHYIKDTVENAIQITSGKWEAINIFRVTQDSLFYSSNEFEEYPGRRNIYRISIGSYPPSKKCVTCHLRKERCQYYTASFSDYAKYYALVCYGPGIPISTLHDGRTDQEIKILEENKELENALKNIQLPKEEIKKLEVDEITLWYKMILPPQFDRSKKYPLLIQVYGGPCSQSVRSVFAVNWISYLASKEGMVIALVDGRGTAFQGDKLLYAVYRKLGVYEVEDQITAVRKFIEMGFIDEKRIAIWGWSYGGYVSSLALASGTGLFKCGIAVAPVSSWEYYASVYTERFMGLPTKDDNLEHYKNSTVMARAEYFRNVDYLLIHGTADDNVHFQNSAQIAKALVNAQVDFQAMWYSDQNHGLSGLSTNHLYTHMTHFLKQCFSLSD
Method: FAP-expressing CAFs were inoculated in a 24-well plate and cultivated with a 10% (volume fraction) FBS-containing 1640 medium for 48 h before the experiment until a cell density was about 80% to 90%; the medium was changed to an FBS-free 1640 medium; and the ^68Ga-2PEG(3)-FAPI-dimer, ^68Ga-FAPI-46, or ^68Ga-2PEG(3)-FAPI-dimer+11.3 nmol FAPI-46 (for the blocking experiment) was added to the 24-well plate and incubated, with predetermined intervals of 10 min, 30 min, 60 min, 90 min, and 120 min. The FAP binding assay was conducted after a radiolabeled compound and a corresponding unlabeled FAPI derivative (1.27×10^−4-10^−13 mol/L of 2PEG(3)-FAPI-dimer was added to ^68Ga-2PEG(3)-FAPI-dimer; and 2.83×10^−4-1×10^−13 mol/L of FAPI-46 was added to ^68Ga-FAPI-46) were co-incubated for 60 min. A half-inhibitory concentration (IC50s) was calculated by using GraphPad Prism to fit data through nonlinear regression. In each step of the experiment, cells were washed twice with 1 mL of PBS. Finally, CAFs were lysed with 0.5 mL of a 1 mol/L NaOH aqueous solution to conduct radioactive counting with a gamma counter. 3 parallel replicates were set for each experiment.

[2] = Stability test: incubation in PBS or FBS, radiochemical purity by HPLC; type: in vitro ADME; conditions: 37° C., 1 h, 2 h, and 4 h
Method: (§1) 20 μL of a solution of the ^68Ga-2PEG(3)-FAPI-dimer (3.7 MBq activity/20 μL) prepared in Example 1 (with normal saline (NS) as a solvent) was taken and added to a centrifuge tube with 100 μL of FBS, and incubated at 37° C. for 1 h, 2 h, and 4 h to obtain an FBS co-incubation solution; 20 μL of the FBS co-incubation solution was taken, 40 μL of acetonitrile was added for protein precipitation, and a resulting mixture was filtered through a 0.22 μm needle filter membrane; and a radiochemical purity was analyzed through HPLC.
as §1, with “NS” for “normal saline (NS)”, “PBS (pH=7.4),” for “FBS,”, “a PBS” for “an FBS”, “PBS” for “FBS”, “taken” for “taken, 40 μL of acetonitrile was added for protein precipitation,”, “and” for “and a resulting mixture was”

[3] = Patient 1 (NPC), PET/CT 60 min after i.v. injection
[4] = Patient 2 (Thyroid cancer), PET/CT 60 min after i.v. injection

IC50 (FAP on CAFs): 3.57 nM
radiochemical purity after incubation in FBS ([2]; FBS): greater than 90%
radiochemical purity after incubation in PBS ([2]; PBS (pH=7.4)): greater than 90%
Compound: CN(CCCN1CCN(C(=O)COCCOCCOCCNC(=O)CCC(=O)N[C@@H](CCCCNC(=O)CN2CCN(CC(=O)[O-])CCN(CC(=O)[O-])CCN(CC(=O)[O-])CC2)C(=O)NCCOCCOCCOCC(=O)N2CCN(CCCN(C)c3ccc4nccc(C(=O)NCC(=O)N5CC(F)(F)C[C@H]5C#N)c4c3)CC2)CC1)c1ccc2nccc(C(=O)NCC(=O)N3CC(F)(F)C[C@H]3C#N)c2c1.[68Ga+3] [^68Ga-2PEG(3)-FAPI-dimer]
SUVmax, Bone metastasis 1 [1, 3]: 17.8
SUVmax, Bone metastasis 2 [1, 3]: 27.5
SUVmax, Bone metastasis 3 [1, 3]: 27.4
SUVmax, Bone metastasis 4 [1, 3]: 25.1
SUVmax, Bone metastasis 5 [1, 3]: 29.8
SUVmax, Bone metastasis 6 [1, 3]: 20.8
SUVmax, Bone metastasis 7 [1, 3]: 17.2
SUVmax, Bone metastasis 8 [1, 3]: 22.1
SUVmax, Bone metastasis 10 [1, 3]: 23.3
SUVmax, Axillary lymph node 1 [1, 4]: 23.2
SUVmax, Axillary lymph node 2 [1, 4]: 33.2
SUVmax, Axillary lymph node 3 [1, 4]: 28.9
SUVmax, Bone metastasis 1 [1, 4]: 26.4
SUVmax, Cervical lymph node 1 [1, 4]: 32.8
SUVmax, Cervical lymph node 2 [1, 4]: 8.1
SUVmax, Hilar lymph node 1 [1, 4]: 18.1
SUVmax, Mediastinal lymph node 1 [1, 4]: 24.6
SUVmax, Supraclavicular lymph node 1 [1, 4]: 39.0
SUVmax, Supraclavicular lymph node 2 [1, 4]: 24.1
SUVmax, Primary tumor ([1]; Patient 3 (HCC), tumor with low FAP expression, PET/CT 60 min after i.v. injection): 9.8
uptake compared with ^68Ga-FAPI-46 in the comparative analysis of single lesions ([1]; three cancer patients, Table 3): significantly higher
